Data taken from US11524966B1 (Valo Early Discovery, Inc., priority 2017, dated 2022).

Target: T1, USP28 (USP28-5(1-1077)-TEV-6*His; LifeSensors) (Homo sapiens, UniProt Q96RU2)
T1 construct: construct USP28 (USP28-5(1-1077)-TEV-6*His; LifeSensors); TEV cleavage site (C); 6xHis (C); purchased LifeSensors
T1 sequence (Q96RU2 1-1077): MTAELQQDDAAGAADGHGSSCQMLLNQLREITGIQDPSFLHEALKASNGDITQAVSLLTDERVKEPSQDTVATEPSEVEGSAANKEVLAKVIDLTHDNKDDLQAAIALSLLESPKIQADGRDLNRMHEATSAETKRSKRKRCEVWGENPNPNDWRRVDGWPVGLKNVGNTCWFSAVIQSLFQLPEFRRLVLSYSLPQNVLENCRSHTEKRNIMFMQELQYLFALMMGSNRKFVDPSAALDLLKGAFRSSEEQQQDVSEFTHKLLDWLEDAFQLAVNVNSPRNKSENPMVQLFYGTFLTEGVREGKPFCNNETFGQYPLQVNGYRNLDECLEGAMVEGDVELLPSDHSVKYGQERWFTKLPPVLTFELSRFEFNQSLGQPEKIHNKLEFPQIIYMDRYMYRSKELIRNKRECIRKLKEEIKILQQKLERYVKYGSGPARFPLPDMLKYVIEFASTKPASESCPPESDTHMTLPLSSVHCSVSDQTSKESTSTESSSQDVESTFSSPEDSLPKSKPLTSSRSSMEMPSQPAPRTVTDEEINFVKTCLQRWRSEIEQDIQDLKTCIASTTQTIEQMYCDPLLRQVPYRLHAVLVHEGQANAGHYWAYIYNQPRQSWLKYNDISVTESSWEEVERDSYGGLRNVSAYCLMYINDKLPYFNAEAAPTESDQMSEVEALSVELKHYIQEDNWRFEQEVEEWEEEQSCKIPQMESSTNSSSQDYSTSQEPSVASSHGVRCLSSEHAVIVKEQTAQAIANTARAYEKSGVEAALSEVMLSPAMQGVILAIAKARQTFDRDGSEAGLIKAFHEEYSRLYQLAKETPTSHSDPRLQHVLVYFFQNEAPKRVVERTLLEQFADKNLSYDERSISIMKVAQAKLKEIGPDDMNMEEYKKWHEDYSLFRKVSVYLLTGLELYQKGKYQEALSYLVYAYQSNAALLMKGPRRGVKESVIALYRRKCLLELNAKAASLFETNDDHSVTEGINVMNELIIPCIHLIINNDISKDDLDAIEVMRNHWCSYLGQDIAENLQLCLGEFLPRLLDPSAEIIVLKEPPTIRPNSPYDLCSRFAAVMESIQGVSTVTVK
Experiment: Ubiquitin-Rhodamine 110 Assay for USP28 Activity, Example A-1(b)
Assay type: biochemical
Conditions: Ubiquitin-Rhodamine 110 assay, Example A-1(b)
Protocol: Example A-1(b): Biochemical Assay: Ubiquitin-Rhodamine 110 Assay for USP28 Activity
Each assay was performed in a final volume of 20 μL in assay buffer containing 20 mM Tris-HCl (pH 8.0, (1M Tris-HCl, pH 8.0 solution; Corning 46-031-CM)), 2 mM CaCl2) (1M Calcium Chloride solution; Sigma #21114) 2 mM BME (2-Mercaptoethanol; Sigma 63689-25ML-F), 0.01% Prionex ([…] filtered, Sigma #G-0411), and 0.01% Triton X-100. Stock compound solutions were stored at −20° C. as 10 mM in DMSO. Up to 1 month prior to the assay, 2 mM test compounds were pre-dispensed into assay plates (Black, low volume; Corning #3820) and frozen at −20° C. Prestamped assay plates were allowed to come to room temperature on the day of the assay. For the screen, 100 nL of 2 mM was pre-dispensed for a final screening concentration of 10 μM (DMSO(fc)=0.5%). […] Plates were incubated stacked for 90 minutes at room temperature before fluorescence was read on the Envision (Excitation at 485 nm and Emission at 535 nm; Perkin Elmer) or on the PheraSTAR (Excitation at 485 nm and Emission at 535 nm; BMG Labtech).
For follow-up studies, each assay was performed in a final volume of 15 μL in assay buffer containing 20 mM Tris-HCl (pH 8.0, (1M Tris-HCl, pH 8.0 solution; Corning 46-031-CM)), 3 mM BME (2-Mercaptoethanol; Sigma 63689-25ML-F), 0.03% BGG (0.22 μM filtered, Sigma, G7516-25G), and 0.01% Triton X-100 (Sigma, T9284-10L). Nanoliter quantities of either an 8-point or 10-point, 3-fold serial dilution in DMSO was pre-dispensed into assay plates (Perkin Elmer, ProxiPlate-384 F Plus, #) for a final test concentration of either 25 μM to 11 nM or 25 μM to 1.3 nM, respectively. Enzyme USP28, construct USP28 (USP28-5(1-1077)-TEV-6*His; LifeSensors) concentration and incubation times were optimized for the maximal signal-to-background while maintaining initial velocity conditions at a fixed substrate concentration. The final concentration of the enzyme in the assay was 75 pM. Final substrate (Ub-Rh110; Ubiquitin-Rhodamine 110, R&D Systems #U-555) concentration was 25 nM with [Ub-Rh110]<<Km. 5 μL of 2× enzyme was added to assay plates (pre-stamped with compound) preincubated with USP28 for 30 minutes and then 5 μL of 2×Ub-Rh110 was added to assay plates. Plates were incubated stacked for 20 minutes at room temperature before 5 μL of stop solution was added (final concentration of 10 mM citric acid (Sigma, 251275-500G)). Fluorescence was read on the Envision (Excitation at 485 nm and Emission at 535 nm; Perkin Elmer) or on the PheraSTAR (Excitation at 485 nm and Emission at 535 nm; BMG Labtech).
For assay formats Example A-1(a), A-1(b), and A-2, data were reported as percent inhibition compared with control wells based on the following equation: % inh=1−((FLU−AveLow)/(AveHigh−AveLow)) where FLU=measured Fluorescence, AveLow=average Fluorescence of no enzyme control (n=16), and AveHigh=average Fluorescence of DMSO control (n=16). IC50 values were determined by curve fitting of the standard 4 parameter logistic fitting algorithm included in the Activity Base software package: IDBS XE Designer Model 205. Data is fitted using the Levenburg Marquardt algorithm.

Q: Which “USP28 A-1(b) IC50 range” value does the source give for `Cc1ccc2c(N)c(C(=O)N[C@@H]3COc4cc(N5C[C@@H]6CNC[C@H]6C5)ccc4C3)sc2n1` [Example 42, 3-amino-((S)-7-((3aS,6aS)-hexahydropyrrolo[3,4-c]pyrrol-2(1H)-yl)chroman-3-yl)-6-methylthieno[2,3-b]pyridine-2-carboxamide] here?
A: ++ (0.2-2 μM)

Q: Which “USP28 A-1(b) IC50 range” value does the source give for `Cc1cnc2c(N)c(C(=O)N[C@H]3CCc4cc(N5CCNCC(F)(F)C5)ccc4C3)sc2n1` [Example 454, (S)-7-amino-N-(6-(6,6-difluoro-1,4-diazepan-1-yl)-1,2,3,4-tetrahydronaphthalen-2-yl)-3-methylthieno[2,3-b]pyrazine-6-carboxamide] here?
A: +++ (0.05-0.2 μM)

Q: For `O=C(N[C@H]1COc2cc(N3CCNCC3)ccc2C1)c1cnn2c(Br)cccc12` [Example 457, (R)-7-bromo-N-(7-(piperazin-1-yl)chroman-3-yl)pyrazolo[1,5-a]pyridine-3-carboxamide], which “USP28 A-1(b) IC50 range” value is on record?
A: ++ (0.2-2 μM)
